Assay results taken from publication PMC6771786, “Closing the gap: yeast electron‐transferring flavoprotein links the oxidation of D‐lactate and D‐α‐hydroxyglutarate to energy production via the respiratory chain” (The Febs Journal, 2019).
Numbering of substitutions follows the chain as printed. Numbers in names are those of the source.

Tests used:
[1] = target: T1, Dld2 (D-lactate dehydrogenase 2) (Saccharomyces cerevisiae, UniProt P46681); test: stopped-flow flavin reduction, hyperbolic fit; format: biochemical; conditions: anaerobic reductive half reaction; 50 mM HEPES, 150 mM NaCl pH 7, 25 °C; 450 nm; fast (first) phase of reduction
T1 construct: produced in Komagataella phaffii KM71H, purified
T1 sequence (P46681 1-530): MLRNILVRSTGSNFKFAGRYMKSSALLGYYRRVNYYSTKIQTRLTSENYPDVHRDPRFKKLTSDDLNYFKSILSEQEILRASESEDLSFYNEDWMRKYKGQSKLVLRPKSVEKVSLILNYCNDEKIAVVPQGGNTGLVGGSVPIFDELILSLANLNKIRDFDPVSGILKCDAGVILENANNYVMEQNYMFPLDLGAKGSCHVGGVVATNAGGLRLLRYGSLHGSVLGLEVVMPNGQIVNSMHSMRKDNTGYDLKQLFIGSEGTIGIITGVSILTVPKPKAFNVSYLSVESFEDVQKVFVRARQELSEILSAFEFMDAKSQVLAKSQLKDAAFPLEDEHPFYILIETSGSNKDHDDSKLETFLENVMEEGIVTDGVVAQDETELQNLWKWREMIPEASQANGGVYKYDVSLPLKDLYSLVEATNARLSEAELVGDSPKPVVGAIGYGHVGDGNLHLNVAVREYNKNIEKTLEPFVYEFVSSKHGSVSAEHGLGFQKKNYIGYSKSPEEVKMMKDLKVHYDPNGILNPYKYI
Text: stopped-flow flavin reduction, hyperbolic fit on Dld2 (D-lactate dehydrogenase 2)

[2] = target: T2, hETF (ETF from Homo sapiens) (Homo sapiens, UniProt P13804+P38117, P38117:Y16F); test: UV-visible photoreduction of bound flavin; format: binding; conditions: co-purified cofactor; 50 mM HEPES pH 7, 1 mM DTT, anaerobic
T2 construct: gene ETFA
T2 sequence (P13804 20-333): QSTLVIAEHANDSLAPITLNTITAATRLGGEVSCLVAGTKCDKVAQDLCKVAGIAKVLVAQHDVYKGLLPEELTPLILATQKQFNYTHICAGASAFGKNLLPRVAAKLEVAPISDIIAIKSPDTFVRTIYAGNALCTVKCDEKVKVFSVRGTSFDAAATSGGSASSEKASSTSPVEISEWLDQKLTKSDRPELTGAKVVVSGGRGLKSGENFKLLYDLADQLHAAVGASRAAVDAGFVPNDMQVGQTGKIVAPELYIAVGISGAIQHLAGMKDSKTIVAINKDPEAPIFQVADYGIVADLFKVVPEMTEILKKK
T2 sequence (P38117 2-255 Y16F): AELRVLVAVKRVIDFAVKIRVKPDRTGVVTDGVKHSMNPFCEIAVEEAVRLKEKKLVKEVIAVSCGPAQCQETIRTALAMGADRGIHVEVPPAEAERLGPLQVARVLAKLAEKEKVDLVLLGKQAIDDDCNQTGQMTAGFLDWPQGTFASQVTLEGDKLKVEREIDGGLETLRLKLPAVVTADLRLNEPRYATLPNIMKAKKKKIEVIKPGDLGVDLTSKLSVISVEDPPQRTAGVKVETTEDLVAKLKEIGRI

[3] = target: T3, hETF (ETF from Homo sapiens) (Homo sapiens, UniProt P13804+P38117); test: UV-visible photoreduction of bound flavin; format: binding; conditions: co-purified cofactor; 50 mM HEPES pH 7, 1 mM DTT, anaerobic
T3 construct: gene ETFA
T3 sequence (P13804 20-333): T2 sequence (P13804 20-333)
T3 sequence (P38117 2-255): T2 sequence (P38117 2-255 Y16F) with F15Y

[4] = target: T4, yETF (electron-transferring flavoprotein of Saccharomyces cerevisiae) (Saccharomyces cerevisiae, UniProt P42940+Q12480); test: UV-visible spectrum, native vs SDS-denatured; HPLC-DAD; format: binding; conditions: co-purified cofactor; 50 mM HEPES pH 7, 1 mM DTT, 25 °C
T4 construct: gene AIM45; heterodimer (alpha 38 kDa, beta 37 kDa), N-terminal hexahistidine tag on beta subunit (pETM11-His TEV), produced in E. coli Rosetta (DE3)-pLysS
T4 sequence (Q12480 15-344): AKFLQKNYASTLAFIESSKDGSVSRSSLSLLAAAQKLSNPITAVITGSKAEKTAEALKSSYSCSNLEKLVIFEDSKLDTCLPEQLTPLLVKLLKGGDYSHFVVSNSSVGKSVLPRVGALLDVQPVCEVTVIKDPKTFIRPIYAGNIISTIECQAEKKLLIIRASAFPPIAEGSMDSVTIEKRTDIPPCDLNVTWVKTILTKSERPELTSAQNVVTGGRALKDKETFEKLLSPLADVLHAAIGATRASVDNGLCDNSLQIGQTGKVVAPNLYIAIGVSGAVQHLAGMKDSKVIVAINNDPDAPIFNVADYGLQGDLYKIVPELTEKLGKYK
T4 sequence (P42940 1-261): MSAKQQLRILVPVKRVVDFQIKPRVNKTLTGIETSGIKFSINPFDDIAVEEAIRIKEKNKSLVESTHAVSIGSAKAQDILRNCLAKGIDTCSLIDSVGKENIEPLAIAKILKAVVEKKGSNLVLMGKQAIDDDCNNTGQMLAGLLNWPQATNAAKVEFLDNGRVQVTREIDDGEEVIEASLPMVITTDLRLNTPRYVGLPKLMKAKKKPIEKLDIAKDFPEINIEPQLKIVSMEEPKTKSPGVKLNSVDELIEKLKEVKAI

purified protein = substrate: O=C(O)CC[C@@H](O)C(=O)O; test: purified protein; format: biochemical, Saccharomyces cerevisiae; conditions: 125 µM 2,6-dichlorophenol indophenol as acceptor, aerobic, 50 mM HEPES, 150 mM NaCl pH 7, 25 °C, apparent

Work on C[C@@H](O)C(=O)O [D‐lactate] yielded a Kd [1] of 15 ± 1 mM.

With Cc1cc2nc3c(=O)[nH]c(=O)nc-3n(C[C@H](O)[C@H](O)[C@H](O)COP(=O)(O)OP(=O)(O)OC[C@H]3O[C@@H](n4cnc5c(N)ncnc54)[C@H](O)[C@@H]3O)c2cc1C [FAD] the “UV-visible photoreduction of bound flavin” value [2] was “hETF‐βTyr16Phe (D) in the course of the photoreduction: oxidized FAD”, the “UV-visible photoreduction of bound flavin” value [3] was “hETF wild‐type (C), and hETF‐βTyr16Phe (D) in the course of the photoreduction: oxidized FAD” and the “UV-visible spectrum, native vs SDS-denatured; HPLC-DAD” value [4] was “absorption spectrum of denatured yETF further indicate the presence of an FAD chromophore”.

B1: Dld2 (D-lactate dehydrogenase 2) (Saccharomyces cerevisiae S288C) (protein)
chain: T1 sequence (P46681 1-530)
notes: produced in Komagataella phaffii KM71H, purified
B1 gave a Km (purified protein) of 350 ± 50 µM, a kcat (purified protein) of 0.42 ± 0.02 s⁻¹ and a kcat/Km (purified protein) of 1200 ± 300 M⁻¹ s⁻¹.
